Measured values reported in patent publication US7709223B2, “Method for detecting bacteria with chromogenic substrates for β-D-ribofuranosidase” (priority 2001, dated 2010).
Where a name gives a salt, the structure may show the parent alone.

How the values were obtained:
Experiment in all cases: Hydrolysis on Columbia agar with ferric ammonium citrate
Assay type in all cases: cell-based
Vibrio cincinnatiensis = Vibrio cincinnatiensis NCTC 12012
Method: (§1) The chromogenic β-D-ribofuranoside substrate was added to Columbia agar at a substrate concentration of 300 mg/l. Ferric ammonium citrate was included at 500 mg/l. All ingredients were autoclaved at 116° C. for 20 minutes to ensure sterilisation. Agar plates were then prepared in 90 mm petri dishes. The substrate caused a yellow colouration of the agar.
(§2) For each strain tested, a bacterial suspension was prepared in sterile deionised water at an inoculum of approximately 1.5×10^8 colony forming units per ml. This was achieved using a densitometer. 1 μl of each bacterial suspension was then inoculated onto each plate using a multipoint inoculator. Strains were inoculated in parallel onto Columbia agar containing ferric ammonium citrate with no substrate (negative control).
(§3) After 18 hours incubation, strains were examined visually for the presence of colour. Any strains producing a black colouration on substrate containing media but not on the negative control plates were deemed to be hydrolysing the substrate.

Vibrio cholerae = tested on: Vibrio cholerae
Method: as §1, §2, §3

Bacillus cereus = Bacillus cereus NCTC
Method: as §1, §2, §3

Streptococcus sanguis = Streptococcus sanguis NCTC 7863
Method: as §1, §2, §3

[1] = tested on: Haemolytic streptococcus G
Method: as §1, §2, §3

staphylococci = details: all of the staphylococci
Method: as §1, §2, §3

P. vulgaris = tested on: P. vulgaris
Method: as §1, §2, §3

Vibrio parahaemolyticus = tested on: Vibrio parahaemolyticus
Method: as §1, §2, §3

Enterococcus gallinarum = Enterococcus gallinarum NCTC 11428
Method: as §1, §2, §3

Vibrio vulnificus = tested on: Vibrio vulnificus
Method: as §1, §2, §3

Providencia stuartii = tested on: Providencia stuartii
Method: as §1, §2, §3

enterococci = enterococci (‘faecal streptococci’)
Method: as §1, §2, §3

Shigella genus = tested on: Shigella genus
Method: as §1, §2, §3

[2] = tested on: Staphylococcus haemolyticus
Method: as §1, §2, §3

Enterococcus faecium = tested on: Enterococcus faecium
Method: as §1, §2, §3

Enterococcus raffinosis = Enterococcus raffinosis NCTC 13192
Method: as §1, §2, §3

Y. enterocolitica = tested on: Y. enterocolitica
Method: as §1, §2, §3

P. rettgeri = P. rettgeri NCTC 7475
Method: as §1, §2, §3

A. lwoffii = A. lwoffii ATCC 15309
Method: as §1, §2, §3

Vibrio anguillarum = Vibrio anguillarum NCTC 12159
Method: as §1, §2, §3

Listeria seerigeri = Listeria seerigeri PHLS wild
Method: as §1, §2, §3

Bacillus licusniforms = Bacillus licusniforms NCIMB 9375
Method: as §1, §2, §3

Streptococcus mitis = Streptococcus mitis NCTC 12261
Method: as §1, §2, §3

[3] = tested on: Staphylococcus epidermidis
Method: as §1, §2, §3

M. morganii = tested on: M. morganii
Method: as §1, §2, §3

Listeria innocua = Listeria innocua PHLS wild
Method: as §1, §2, §3

[4] = tested on: Providencia alcalifaciens
Method: as §1, §2, §3

Streptococci = tested on: Streptococci
Method: as §1, §2, §3

P. aeruginosa = tested on: P. aeruginosa
Method: as §1, §2, §3

Streptococcus milleri = Streptococcus milleri wild
Method: as §1, §2, §3

Streptococcus pneumoniae = Streptococcus pneumoniae NCTC 7465
Method: as §1, §2, §3

Streptococcus salivarius = Streptococcus salivarius NCTC 8618
Method: as §1, §2, §3

O=c1cc(-c2ccc(OC3OC(CO)C(O)C3O)c(O)c2)oc2ccccc12 [DHF-riboside, 3′,4′-Dihydroxyflavone-4′-β-D-ribofuranoside sodium salt]
β-Riboside (hydrolysis) (Vibrio cincinnatiensis): − | β-Riboside (hydrolysis) (Vibrio cholerae; Vibrio cholera NCTC 6585): − | β-Riboside (hydrolysis) (Vibrio cholerae; Vibrio cholera NCTC 7270): − | β-Riboside (hydrolysis) (Vibrio cholerae; Vibrio cholera NCTC 8021): − | β-Riboside (hydrolysis) (Vibrio cholerae; Vibrio cholera NCTC 10732): − | β-Riboside (hydrolysis) (Vibrio cholerae; Vibrio cholera NCTC 12945): − | β-Riboside (hydrolysis) (Vibrio cholerae; Vibrio cholerae NCTC 7254): − | β-Riboside (hydrolysis) (Vibrio cholerae; Vibrio cholerae NCTC 8042): − | β-Riboside (hydrolysis) (Vibrio cholerae; Vibrio cholerae NCTC 10255): − | β-Riboside (hydrolysis) (Vibrio cholerae; Vibrio cholerae NCTC 10954): − | β-Ribofuranoside (hydrolysis) (Bacillus cereus): − | β-Ribofuranoside (hydrolysis) (Streptococcus sanguis): − | β-Ribofuranoside (hydrolysis) ([1]; Reference No. 1): − | β-Ribofuranoside (hydrolysis) ([1]; Reference No. 2): − | β-Ribofuranoside (hydrolysis) ([1]; Reference No. 3): + | Activity with the substrate (staphylococci): positive | β-Riboside (hydrolysis) (P. vulgaris; P. vulgaris PVU 2): − | β-Riboside (hydrolysis) (P. vulgaris; P. vulgaris PVU 4): − | β-Riboside (hydrolysis) (P. vulgaris; P. vulgaris PVU 5): − | β-Riboside (hydrolysis) (Vibrio parahaemolyticus; Vibrio parahaemolyticus NCTC 10441): − | β-Riboside (hydrolysis) (Vibrio parahaemolyticus; Vibrio parahaemolyticus NCTC 10884): − | β-Riboside (hydrolysis) (Vibrio parahaemolyticus; Vibrio parahaemolyticus NCTC 10903): − | β-Riboside (hydrolysis) (Vibrio parahaemolyticus; Vibrio parahaemolyticus NCTC 11344): − | β-Riboside (hydrolysis) (Vibrio parahaemolyticus; Vibrio parahaemolyticus NCTC 12205): − | β-Ribofuranoside (hydrolysis) (Enterococcus gallinarum): + | β-Riboside (hydrolysis) (Vibrio vulnificus; Vibrio vulnificus NCTC 11066): − | β-Riboside (hydrolysis) (Vibrio vulnificus; Vibrio vulnificus NCTC 11067): − | β-Riboside (hydrolysis) (Providencia stuartii; Providencia stuartii PST 1): + | β-Riboside (hydrolysis) (Providencia stuartii; Providencia stuartii PST 2): + | Activity with the substrate (enterococci): variable | β-D-ribofuranosidase activity (Shigella genus): uniformly positive | β-Ribofuranoside (hydrolysis) ([2]; Staphylococcus haemolyticus RB 66): + | β-Ribofuranoside (hydrolysis) ([2]; Staphylococcus haemolyticus RB 67): + | β-Ribofuranoside (hydrolysis) ([2]; Staphylococcus haemolyticus RB 68): + | β-Ribofuranoside (hydrolysis) ([2]; Staphylococcus haemolyticus RB 69): + | β-Ribofuranoside (hydrolysis) ([2]; Staphylococcus haemolyticus RB 70): + | β-Ribofuranoside (hydrolysis) (Enterococcus faecium; Enterococcus faecium 121285 - wild ′99): − | β-Ribofuranoside (hydrolysis) (Enterococcus faecium; Enterococcus faecium, Reference No. 1): − | β-Ribofuranoside (hydrolysis) (Enterococcus faecium; Enterococcus faecium, Reference No. 2): − | β-Ribofuranoside (hydrolysis) (Enterococcus faecium; Enterococcus faecium, Reference No. 3): − | β-Ribofuranoside (hydrolysis) (Enterococcus faecium; Enterococcus faecium, Reference No. 4): + | β-Ribofuranoside (hydrolysis) (Enterococcus faecium; Enterococcus faecium, Reference No. 5): − | β-Ribofuranoside (hydrolysis) (Enterococcus faecium; Enterococcus faecium, Reference No. 6): + | β-Ribofuranoside (hydrolysis) (Enterococcus faecium; Enterococcus faecium, Reference No. 7): − | β-Ribofuranoside (hydrolysis) (Enterococcus raffinosis): + | β-Riboside (hydrolysis) (Y. enterocolitica; Y. enterocolitica NCTC 10460): − | β-Riboside (hydrolysis) (Y. enterocolitica; Y. enterocolitica NCTC 11176): − | β-Riboside (hydrolysis) (Y. enterocolitica; Y. enterocolitica NCTC 11177): − | β-Riboside (hydrolysis) (Y. enterocolitica; Y. enterocolitica NCTC 11600): − | β-Riboside (hydrolysis) (P. rettgeri): + | β-Riboside (hydrolysis) (A. lwoffii): − | β-Riboside (hydrolysis) (Vibrio anguillarum): − | β-Ribofuranoside (hydrolysis) (Listeria seerigeri): − | β-Ribofuranoside (hydrolysis) (Bacillus licusniforms): − | β-Ribofuranoside (hydrolysis) (Streptococcus mitis): − | β-Ribofuranoside (hydrolysis) ([3]; Staphylococcus epidermidis RB60): ++ | β-Ribofuranoside (hydrolysis) ([3]; Staphylococcus epidermidis RB62): + | β-Ribofuranoside (hydrolysis) ([3]; Staphylococcus epidermidis RB63): + | β-Ribofuranoside (hydrolysis) ([3]; Staphylococcus epidermidis RB64): + | β-Ribofuranoside (hydrolysis) ([3]; Staphylococcus epidermidis RB65): + | β-Riboside (hydrolysis) (M. morganii; M. morganii MMO 1): + | β-Riboside (hydrolysis) (M. morganii; M. morganii MMO 2): + | β-Riboside (hydrolysis) (M. morganii; M. morganii NCTC 235): − | β-Ribofuranoside (hydrolysis) (Listeria innocua): − | β-Riboside (hydrolysis) ([4]; Providencia alcalifaciens PAL 1): + | β-Riboside (hydrolysis) ([4]; Providencia alcalifaciens PAL 2): − | Activity with the substrate (Streptococci): almost universally negative | β-Riboside (hydrolysis) (P. aeruginosa; P. aeruginosa ATCC 10145): + | β-Riboside (hydrolysis) (P. aeruginosa; P. aeruginosa NCTC 10662): + | β-Ribofuranoside (hydrolysis) (Streptococcus milleri): − | β-Ribofuranoside (hydrolysis) (Streptococcus pneumoniae): − | β-Ribofuranoside (hydrolysis) (Streptococcus salivarius): −
